“And” between values parts separate entries of the source, which are not always exact repeats. Identical values can stand only once. Like-named read-outs stand apart in the source and are kept apart here. Numbered stars: 1 amine (or outer) side, 2 acyl side, 3 side chain; on linkers, the order of the positions; unused ones are H or OH. Bridge positions count the residues as written; N and C are the ends. Square brackets hold non-standard residues; d marks the D form. Peptide text beside a SMILES is read from it. * marks the point of attachment. Tridecanoyl(12-Me) = CC(C)CCCCCCCCCCC(=O)*; X1 = NC(=O)CC(O)C(N[*:1])C(=O)[*:2]; NMeF = CN[CH](Cc1ccccc1)C(=O)O; NMeN = CN[CH](CC(N)=O)C(=O)O; X2 = CCC(C)CCCCCCCCCCC(=O)*
How the values were obtained:
several fungal species = experiment: Leaf disc or leaf segment tests, summary over the fungi tested; format: in vivo; details: up to; Tables 4 and 5
Protocol: Leaf disks or leaf segments of various plant species were cut from plants grown in the greenhouse. The cut leaf disks, or segments were placed in multiwell plates (24-well format) onto water agar. The leaf disks were sprayed with a test solution before inoculation with the fungal spores. Compounds to be tested were prepared as DMSO solutions (max. 10 mg/ml) which were diluted to the appropriate concentration with water plus 0.025% Tween® 20 just before spraying. The inoculated leaf disks or segments were incubated under defined conditions (temperature, relative humidity, light, etc.) according to the respective test system. A single evaluation of disease level was carried out by visual evaluation 3-9 days days after inoculation, depending on the pathosystem as indicated below. Percent disease control relative to the untreated check leaf disks or segments was then calculated.

[1] = tested on: ROS production induced by flg22; experiment: Reactive Oxygen Species (ROS) burst assay with wheat leaf discs; details: Triticum aestivum, foliar
Sclerotinia sclerotiorum = experiment: Liquid culture 96-well mixture assay with malonomicin, Sclerotinia sclerotiorum, 72 hrs; format: cell-based; details: concentrations in Table 8
Protocol: A stock solution for compound of Formula I(a) was produced in DMSO (max. 10 mg/ml). Malonomicin was produced according to Law et al, 2018 (Nature Catalys is |VOL 1|DECEMBER 2018|977-984). A stock solution of malonomicin was produced in water plus 0.025% Tween® 20.
Assays to test efficacy of mixtures of the lipopeptide compound of Formula I(a) in combination with malonomicin on the control of fungal pathogens in a liquid culture assay were designed for a 96well plate as outlined in table 1:
The 96 well plate design allows to compare disease control of the mixture with disease control of the respective single compound at the same rate.
A master plate with 10× concentrated solution of the compound stock solutions diluted in water plus 0.025% Tween® 20 was prepared. The concentration of DMSO (from the stock of compound of Formula (a)) and Tween® 20 was kept constant in all cells of the master plate. 10 μl was transferred from the master plate to a 96well test plate. The nutrient broth containing the fungal spores/mycelia fragments was then added to the test plate to give an end concentration of 1× for the tested compounds (as outlined in Table 8). The test plates were incubated in the dark at 24 °C and 96% rh. The inhibition of fungal growth was determined photometrically after ca 3 days, and percent fungal growth reduction relative to the untreated check was calculated.
Sclerotinia sclerotiorum (EPPO Code: SCLESC)
Mycelial fragments of the fungus prepared from a fresh liquid culture were directly mixed into nutrient broth (PDB: potato dextrose broth).

Puccinia recondita = experiment: Leaf disc mixture assay with malonomicin, Puccinia recondita, curative spray timing, 8 dpi; format: in vivo, Puccinia recondita on wheat (cultivar Kanzler)
Protocol: A stock solution for the lipopeptide compound of Formula I(a) was produced in DMSO (max. 10 mg/ml). Malonomicin was produced according to Law et al, 2018 (Nature Catalys is |VOL 1|DECEMBER 2018|977-984). A stock solution of malonomicin was produced in water plus 0.025% Tween®20.
Assays to test efficacy of mixtures of compound of Formula I(a) in combination with malonomicin on the control of fungal pathogens in a leaf disc assay were designed for two 24well plates.
Table 22 and Table 23. Outline of 24well testplate (1) and testplate (2) including concentration of compounds sprayed per well. The upper number in the cell indicates compound of Formula I(a) concentration (ppm), the lower number malonomicin concentration (ppm). Column (1) holds a dilution series of compound of Formula I(a), row (2-D) hold a dilution series of malonomicin. Well 2-D-(1) represents an untreated check. This design was applied for tests including Puccinia recondita (EPPO code: PUCCRE) with preventive and curative spray timing.
A first set of master plates with 1× concentrated spray solution of the lipopeptide compound of Formula I(a) stock diluted in water with concentrations according to table 22, table 23, table 25 or table 26, respectively, was prepared. Each well contained 2% DMSO and 0.025% Tween20. Accordingly, a second set of master plates with 1× concentrated malonomicin stock diluted in water was prepared. Each well of the second set contained 0.025% Tween20. Leaf segments placed on agar in 24well plates were sprayed with 8 μl of solution from the master plate containing the lipopeptide compound of Formula I(a) and the leaf segments were let to dry, followed 2 hours later by 8 μl of solution from the master plate containing malonomicin. After second sprays had dried, leaf segments were infected with fungal spores to obtain a preventive application timing. Alternatively, leaf segments infected one day before spray of the compounds were used, resulting in a curative spray timing. In addition, several plates were produced where leaf segments were sprayed 2× in absence of test compound (with only DMSO and Tween20), representing the untreated check samples. For each leaf segment percent leaf coverage of disease symptoms was assessed. Percent leaf coverage reduction relative to the untreated check was calculated. Efficacy of the mixtures was tested in duplicate and on different fungal species. Reported efficacy values are the average of two replicate results.
Puccinia recondita (EPPO Code: PUCCRE) with Curative Spray Timing.
Wheat (cultivar Kanzler) leaf segments are placed on agar in multiwell plates (24-well format). The leaf disks are then inoculated with a spore suspension of the fungus. One day after inoculation the test solution is sprayed (8 ul per well). After appropriate incubation the activity of a compound is assessed 8 dpi (days after inoculation) as curative fungicidal activity

[2] = read-out: Fold change (peak ROS)
[3] = read-out: increase of ROS production induced by flg22 (factor)

Structure (SMILES): CCC(C)CCCCCCCCCCC(=O)NC1C(=O)NC(CC(=O)O)C(=O)NC(C(O)CC(N)=O)C(=O)NC(CO)C(=O)N(C)C(CC(N)=O)C(=O)N(C)C(Cc2ccccc2)C(=O)NC(CCC(N)=O)C(=O)NC(CCC(=O)O)C(=O)OC1C (stereo not drawn) [Formula I(b)] (X2-TD[X1]S[NMeN][NMeF]QE; ester 1-C; configuration not given here)
- reduction of fungal growth (several fungal species): up to 95%
- fold induction at 1 ppm [1, 2]: 1.2
- fold induction at 25 ppm [1, 2]: 1.3
- fold induction at 100 ppm [1, 2]: 3
- fold induction at 100 ppm [1, 3]: ≥ 2.7

Structure (SMILES): NC[C@@H]1NC(=O)C(C(=O)CC(NC(=O)[C@@H](N)CO)(C(=O)O)C(=O)O)=C1O [malonomicin, {[(2S)-2-amino-3-hydroxypropanoyl]amino}{2-[(5S)-5-(aminomethyl)-4-hydroxy-2-oxo-2,5-dihydro-1H-pyrrol-3-yl]-2-oxoethyl}malonic acid]
- control of fungal growth (% reduction of growth in the test well as compared to untreated check) (Sclerotinia sclerotiorum; plate column (2), highest malonomicin concentration, lines A-G with compound of Formula I(a) dilution series, line H malonomicin alone): 90%
- control of fungal growth (% reduction of growth in the test well as compared to untreated check) (Sclerotinia sclerotiorum; plate column (3) of malonomicin dilution series, lines A-G with compound of Formula I(a), line H malonomicin alone): 90%
- control of fungal growth (% reduction of growth in the test well as compared to untreated check) (Sclerotinia sclerotiorum; plate column (4) of malonomicin dilution series, lines A-G with compound of Formula I(a), line H malonomicin alone): 90%
- control of fungal growth (% reduction of growth in the test well as compared to untreated check) (Sclerotinia sclerotiorum; plate column (5) of malonomicin dilution series, lines A-G with compound of Formula I(a), line H malonomicin alone): 70%
- control of fungal growth (% reduction of growth in the test well as compared to untreated check) (Sclerotinia sclerotiorum; plate column (6) of malonomicin dilution series, lines A-G with compound of Formula I(a), line H malonomicin alone): 50%
- control of fungal growth (% reduction of growth in the test well as compared to untreated check) (Sclerotinia sclerotiorum; plate column (7) of malonomicin dilution series, lines A-G with compound of Formula I(a), line H malonomicin alone): 20%
- control of fungal growth (% reduction of growth in the test well as compared to untreated check) (Sclerotinia sclerotiorum; plate column (8) of malonomicin dilution series, lines A-G with compound of Formula I(a), line H malonomicin alone): 0%
- control of fungal growth (% reduction of growth in the test well as compared to untreated check) (Sclerotinia sclerotiorum; plate column (9) of malonomicin dilution series, lines A-G with compound of Formula I(a), line H malonomicin alone): 0%
- control of fungal growth (% reduction of growth in the test well as compared to untreated check) (Sclerotinia sclerotiorum; plate column (10) of malonomicin dilution series, lines A-G with compound of Formula I(a), line H malonomicin alone): 0%
- control of fungal growth (% reduction of growth in the test well as compared to untreated check) (Sclerotinia sclerotiorum; plate column (11), lowest malonomicin concentration, lines A-G with compound of Formula I(a), line H malonomicin alone): 0%
- control of fungal growth (% reduction of symtoms on the leaf segment as compared to untreated check) (Puccinia recondita; column (2): malonomicin 200 ppm, compound of Formula I(a) lines 1-A to 2-D = 200, 100, 50, 25, 12.5, 6.25, 3.13, 0 ppm): 100%
- control of fungal growth (% reduction of symtoms on the leaf segment as compared to untreated check) (Puccinia recondita; column (3): malonomicin 20 ppm, compound of Formula I(a) lines 1-A to 2-D = 200, 100, 50, 25, 12.5, 6.25, 3.13, 0 ppm): 100%
- control of fungal growth (% reduction of symtoms on the leaf segment as compared to untreated check) (Puccinia recondita; column (4): malonomicin 6.67 ppm, compound of Formula I(a) lines 1-A to 2-D = 200, 100, 50, 25, 12.5, 6.25, 3.13, 0 ppm): 100%
- control of fungal growth (% reduction of symtoms on the leaf segment as compared to untreated check) (Puccinia recondita; column (5): malonomicin 2.22 ppm, compound of Formula I(a) lines 1-A to 2-D = 200, 100, 50, 25, 12.5, 6.25, 3.13, 0 ppm): 70%
- control of fungal growth (% reduction of symtoms on the leaf segment as compared to untreated check) (Puccinia recondita; column (6): malonomicin 0.74 ppm, compound of Formula I(a) lines 1-A to 2-D = 200, 100, 50, 25, 12.5, 6.25, 3.13, 0 ppm): 35%

Structure (SMILES): CC(C)CCCCCCCCCCC(=O)NC1C(=O)NC(CC(=O)O)C(=O)NC(C(O)CC(N)=O)C(=O)NC(CO)C(=O)N(C)C(CC(N)=O)C(=O)N(C)C(Cc2ccccc2)C(=O)NC(CCC(N)=O)C(=O)NC(CCC(=O)O)C(=O)OC1C (stereo not drawn) [Formula I(a)] ({Tridecanoyl(12-Me)}-TD[X1]S[NMeN][NMeF]QE; ester 1-C; configuration not given here)
- control of fungal growth (% reduction of growth in the test well as compared to untreated check) (Sclerotinia sclerotiorum; plate column (1): compound of Formula I(a) alone, dilution series lines A (highest) to G): 0%
- control of fungal growth (% reduction of symtoms on the leaf segment as compared to untreated check) (Puccinia recondita; column (1): compound of Formula I(a) alone, lines 1-A to 2-C = 200, 100, 50, 25, 12.5, 6.25, 3.13 ppm): 0% and 10%
- reduction of fungal growth (several fungal species): up to 95%
- fold induction at 1 ppm [1, 2]: 0.8
- fold induction at 25 ppm [1, 2]: 0.8
- fold induction at 100 ppm [1, 2]: 2.7
- fold induction at 100 ppm [1, 3]: ≥ 2.7

— patent publication US20260347403A1, “FUNGICIDAL COMPOUND” (priority 2022, published 2026)
